The values that follow come from patent US20260007681A1, “INDOLE DERIVATIVES AS ESTROGEN RECEPTOR DEGRADERS” (REGENTS OF THE UNIVERSITY OF MICHIGAN, priority 2022, published 2026).

pIC50: −log10 of the molar value. Some results are limits rather than exact numbers.

Usually pIC50 stands for the negative decadic logarithm of the IC50, by convention in mol/L. A word on the DC50: it is the concentration giving 50% degradation. For orientation: Dmax means the greatest extent of degradation seen.

In assay [1] the target is CRBN/DDB1 (Homo sapiens (Human), UniProt Q96SW2). It counts as binding. The conditions noted are these: His tagged CRBN+DDB-DLS7+CXU4, Cy5-labeled Thalidomide probe, one hour incubation; read-out: CRBN HTRF IC50. The method, then:
The binding potency was determined using H-TRF assay technology (Perkin Elmer). Compounds were serially diluted in DMSO and 0.2 μL volume was transferred to white 384-well plate.
For orientation: TR-FRET usually uses a lanthanide donor and a delayed reading to cut background.

Assay [2] addresses ER in MCF-7 cells (Homo sapiens (Human), UniProt P03372). Description: In-cell western (ICW) ER degradation assay in MCF-7 cells (Compounds A1-A70). It is filed as cell-based. To be noted: MCF-7 cells, 16 hrs treatment; for DC50: ER degradation, 0.02 to 300 nM, read-out: MCF7 ICW DC50; for Dmax: MCF7, maximal ER degradation, read-out: MCF7 ICW Dmax (%). The protocol: (§1) ERa degradative activity of compounds can be assessed in MCF-7 and T47D Cells. MCF-7 and T47D cell are seeded and are subsequently treated with the compounds at certain concentrations (e.g., 0.02 to 300 nM). DMSO can be used as vehicle control. Cells are fixed and are blocked with Intercept (PBS) Blocking Buffer (e.g., Li—COR, Odyssey Blocking Buffer), and are stained with ER (e.g., 1:500, Cell signaling) primary antibody for overnight at cold room. Secondary Antibody (e.g., IRDye 800CW Goat anti-Rabbit IgG) and CellTag 700 Stain are added in Intercept (PBS) Blocking Buffer. Finally, cell plate is placed in incubator to dry. Image and signal are captured on Odyssey® DLx Imaging System.
(§2) Day 3: After 16 hrs of compounds treatment, cells were fixed by 4% PFA and permeabilized with elution buffer (0.1% Triton X-100 in 1% PBS Solution). Subsequently, cells were blocked with Intercept (PBS) Blocking Buffer (Li—COR, Odyssey Blocking Buffer), and were stained with ER (1:500, Cell signaling) primary antibody for overnight at cold room.
(§3) Day 4: Remove the buffer, add IRDye 800CW Goat anti-Rabbit IgG Secondary Antibody (1:2000) and CellTag 700 Stain (1:500) in Intercept (PBS) Blocking Buffer. Finally, cell plate is placed in incubator to dry. Image and signal were captured on Odyssey® DLx Imaging System.

The target in assay [3] is ER in T47D cells (Homo sapiens (Human), UniProt P03372). The assay can be described thus: In-cell western (ICW) ER degradation assay in T47D cells (Compounds A1-A70). It is filed as cell-based. The conditions noted are these: T47D cells, 16 hrs treatment; for DC50: ER degradation, 0.02 to 300 nM; for Dmax: T47D, maximal ER degradation, read-out: T47D ICW Dmax (%). The protocol:
as §1, §2, §3

Chain of ER in MCF-7 cells (P03372 whole entry): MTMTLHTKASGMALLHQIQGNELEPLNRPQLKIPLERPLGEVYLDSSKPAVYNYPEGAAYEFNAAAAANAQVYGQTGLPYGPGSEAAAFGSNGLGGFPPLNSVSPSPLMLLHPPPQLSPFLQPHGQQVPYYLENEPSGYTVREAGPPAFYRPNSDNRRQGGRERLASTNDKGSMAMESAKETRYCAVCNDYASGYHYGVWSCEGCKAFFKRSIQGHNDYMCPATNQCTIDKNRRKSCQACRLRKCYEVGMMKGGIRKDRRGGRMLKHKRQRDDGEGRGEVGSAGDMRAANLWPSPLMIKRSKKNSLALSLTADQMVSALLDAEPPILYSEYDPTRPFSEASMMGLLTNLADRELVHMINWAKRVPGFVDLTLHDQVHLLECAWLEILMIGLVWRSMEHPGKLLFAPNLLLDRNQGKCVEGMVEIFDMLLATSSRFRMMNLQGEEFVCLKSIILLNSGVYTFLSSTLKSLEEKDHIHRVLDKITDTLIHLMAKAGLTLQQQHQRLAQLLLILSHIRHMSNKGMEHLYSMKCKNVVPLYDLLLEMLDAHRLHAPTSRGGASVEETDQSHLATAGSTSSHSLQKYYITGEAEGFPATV
Chain of ER in T47D cells (P03372 whole entry): as above
Chain of CRBN/DDB1 (Q96SW2 whole entry): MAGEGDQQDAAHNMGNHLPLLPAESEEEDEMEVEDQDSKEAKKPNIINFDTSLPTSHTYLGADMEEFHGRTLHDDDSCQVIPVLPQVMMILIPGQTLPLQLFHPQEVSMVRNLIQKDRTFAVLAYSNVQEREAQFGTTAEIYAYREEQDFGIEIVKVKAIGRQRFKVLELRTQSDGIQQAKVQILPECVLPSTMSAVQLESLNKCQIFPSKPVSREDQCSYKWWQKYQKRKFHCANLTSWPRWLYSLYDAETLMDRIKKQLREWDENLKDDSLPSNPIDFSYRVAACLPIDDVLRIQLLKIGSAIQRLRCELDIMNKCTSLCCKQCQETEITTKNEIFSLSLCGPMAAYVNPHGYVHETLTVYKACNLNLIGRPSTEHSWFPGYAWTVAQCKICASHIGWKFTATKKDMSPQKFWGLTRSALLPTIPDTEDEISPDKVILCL
Chain of CRBN/DDB1 (Q16531 whole entry partner): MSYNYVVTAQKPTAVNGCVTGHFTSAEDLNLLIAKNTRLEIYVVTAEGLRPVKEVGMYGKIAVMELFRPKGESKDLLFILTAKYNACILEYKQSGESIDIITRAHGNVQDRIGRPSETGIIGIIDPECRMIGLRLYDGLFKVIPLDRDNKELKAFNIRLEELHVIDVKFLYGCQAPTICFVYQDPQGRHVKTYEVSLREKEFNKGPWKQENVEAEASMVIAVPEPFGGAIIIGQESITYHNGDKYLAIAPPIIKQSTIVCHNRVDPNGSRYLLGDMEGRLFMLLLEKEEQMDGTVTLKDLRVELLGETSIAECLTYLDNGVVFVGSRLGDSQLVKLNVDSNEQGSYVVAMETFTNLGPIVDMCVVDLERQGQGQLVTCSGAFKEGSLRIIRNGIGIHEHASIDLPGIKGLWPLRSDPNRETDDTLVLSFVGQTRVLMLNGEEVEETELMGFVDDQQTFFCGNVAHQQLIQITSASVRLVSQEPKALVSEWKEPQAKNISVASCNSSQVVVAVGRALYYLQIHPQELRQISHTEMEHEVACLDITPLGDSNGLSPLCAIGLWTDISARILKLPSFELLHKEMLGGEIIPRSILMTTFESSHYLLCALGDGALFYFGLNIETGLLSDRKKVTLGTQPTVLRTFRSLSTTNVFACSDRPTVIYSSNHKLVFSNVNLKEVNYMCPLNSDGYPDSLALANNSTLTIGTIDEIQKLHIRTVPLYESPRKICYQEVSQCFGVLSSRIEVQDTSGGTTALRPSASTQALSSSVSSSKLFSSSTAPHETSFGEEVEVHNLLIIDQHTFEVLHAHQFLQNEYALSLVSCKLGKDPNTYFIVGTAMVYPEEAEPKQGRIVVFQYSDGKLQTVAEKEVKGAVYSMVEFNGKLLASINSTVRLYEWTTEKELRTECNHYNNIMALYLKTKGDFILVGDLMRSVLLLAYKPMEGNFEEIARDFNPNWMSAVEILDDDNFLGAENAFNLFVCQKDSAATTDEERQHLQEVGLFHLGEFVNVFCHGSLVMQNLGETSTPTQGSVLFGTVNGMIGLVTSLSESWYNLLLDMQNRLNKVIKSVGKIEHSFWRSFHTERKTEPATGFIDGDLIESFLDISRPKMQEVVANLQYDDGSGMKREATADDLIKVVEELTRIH

For the molecule `C[C@@H]1Cc2c([nH]c3ccccc23)[C@@H](c2cnc(N3CCC4(CCC(CN5CCN6c7cc8c(cc7OC[C@@H]6C5)C(=O)N([C@H]5CCC(=O)NC5=O)C8)CC4)CC3)nc2)N1CC(C)(C)F` [Compound A9, (S)-3-((S)-3-((3-(5-((1R,3R)-2-(2-fluoro-2-methylpropyl)-3-methyl-2,3,4,9-tetrahydro-1H-pyrido[3,4-b]indol-1-yl)pyrimidin-2-yl)-3-azaspiro[5.5]undecan-9-yl)methyl)-8-oxo-1,2,3,4,4a,5,8,10-octahydro-9H-pyrazino[1′,2′:4,5][1,4]oxazino[2,3-f]isoindol-9-yl)piperidine-2,6-dione], the pIC50 in assay [1] was under 5.30. Moreover, in assay [2], the DC50 was under 1 nM and the Dmax lay within 25 to 50%.
For `C[C@@H]1Cc2c([nH]c3ccccc23)[C@@H](c2ccc(N3CCC4(CC3)CC(CN3CCN5c6cc7c(cc6OC[C@@H]5C3)C(=O)N([C@H]3CCC(=O)NC3=O)C7)C4)nc2)N1CC(F)F` [Compound A11, (S)-3-((S)-3-((7-(5-((1R,3R)-2-(2,2-difluoroethyl)-3-methyl-2,3,4,9-tetrahydro-1H-pyrido[3,4-b]indol-1-yl)pyridin-2-yl)-7-azaspiro[3.5]nonan-2-yl)methyl)-8-oxo-1,2,3,4,4a,5,8,10-octahydro-9H-pyrazino[1′,2′:4,5][1,4]oxazino[2,3-f]isoindol-9-yl)piperidine-2,6-dione], in that order: 5.30 to 6.30, 1 to 10 nM and 50 to 75%.
The corresponding values for `C[C@@H]1Cc2c([nH]c3ccccc23)[C@@H](c2ccc(N3CCC4(CC3)CC(CN3CCN5c6ccc7c(c6OC[C@@H]5C3)CN([C@H]3CCC(=O)NC3=O)C7=O)C4)nc2)N1CC(F)F` [Compound A24, (S)-3-((S)-7-((7-(5-((1R,3R)-2-(2,2-difluoroethyl)-3-methyl-2,3,4,9-tetrahydro-1H-pyrido[3,4-b]indol-1-yl)pyridin-2-yl)-7-azaspiro[3.5]nonan-2-yl)methyl)-1-oxo-1,3,5,5a,6,7,8,9-octahydro-2H-pyrazino[1′,2′:4,5][1,4]oxazino[2,3-e]isoindol-2-yl)piperidine-2,6-dione] are over 7.30, 10 to 100 nM and 25 to 50%.
For `C[C@@H]1Cc2c([nH]c3ccccc23)[C@@H](c2cnc(N3CCN(CC4CCN(c5ccc(N6CCC(=O)NC6=O)cc5)CC4)CC3)nc2)N1CC(F)F` [Compound A38, 1-(4-(4-((4-(5-((1R,3R)-2-(2,2-difluoroethyl)-3-methyl-2,3,4,9-tetrahydro-1H-pyrido[3,4-b]indol-1-yl)pyrimidin-2-yl)piperazin-1-yl)methyl)piperidin-1-yl)phenyl)dihydropyrimidine-2,4(1H,3H)-dione], the pIC50 in assay [1] is 5.30 to 6.30. Further, in assay [3], the DC50 lay in the range of 1 to 10 nM and the maximal degradation (Dmax) was under 25%.
For `COc1cc(N2CCC(CN3CCC(c4ccc(N[C@H]5CCC(=O)NC5=O)c(F)c4)CC3)CC2)ccc1[C@@H]1c2[nH]c3ccccc3c2C[C@@H](C)N1CC(F)F` [Compound A40, (S)-3-((4-(1-((1-(4-((1R,3R)-2-(2,2-difluoroethyl)-3-methyl-2,3,4,9-tetrahydro-1H-pyrido[3,4-b]indol-1-yl)-3-methoxyphenyl)piperidin-4-yl)methyl)piperidin-4-yl)-2-fluorophenyl)amino)piperidine-2,6-dione], in that order: under 5.30, under 1 nM and 25 to 50%.
On to `COc1cc(N2CCC(CN3CCN(c4cnc(C(=O)NC5CCC(=O)NC5=O)cc4OC)CC3)CC2)ccc1[C@@H]1c2[nH]c3ccccc3c2C[C@@H](C)N1CC(F)F` (stereo partly drawn) [Compound A56, 5-(4-((1-(4-((1R,3R)-2-(2,2-difluoroethyl)-3-methyl-2,3,4,9-tetrahydro-1H-pyrido[3,4-b]indol-1-yl)-3-methoxyphenyl)piperidin-4-yl)methyl)piperazin-1-yl)-N-(2,6-dioxopiperidin-3-yl)-4-methoxypicolinamide], for which, in assay [1], the pIC50 was under 5.30. Moreover, in assay [2], the DC50 was under 1 nM and the Dmax fell in the range of 50 to 75%.
